This is an account of results in the SangsterLogP compilation.

Structures are written as SMILES.

What is called logP is the decadic logarithm of the partition coefficient of the neutral form, usually between octanol and water. For the molecule `O=c1c(O[C@@H]2O[C@H](CO)[C@@H](O)[C@H](O)[C@H]2O)c(-c2ccc(O)c(O)c2)oc2cc(O)cc(O)c12`, the logP was determined as 0.7. For the molecule `O=CC(O)(COC(=O)c1cc(O)c(O)c(O)c1)C(O)C(O)COC(=O)c1cc(O)c(O)c(O)c1` (stereo not given), the logP was -0.35. As for `O=C(OCC1OC(OC(=O)c2cc(O)c(O)c(O)c2)C(O)C(O)C1O)c1cc(O)c(O)c(O)c1` (stereo not given), the figure is -0.33. As for `O=C(O[C@@H]1O[C@@H]2COC(=O)c3cc(O)c(O)c(O)c3-c3c(cc(O)c(O)c3O)C(=O)O[C@H]2[C@@H]2OC(=O)c3cc(O)c(O)c(O)c3-c3c(cc(O)c(O)c3O)C(=O)O[C@@H]12)c1cc(O)c(O)c(O)c1`, the figure is -1.07. `COc1cc(O)c2c(=O)cc(C)oc2c1`: the lipophilicity (logP) amounted to 1. For `O=CC1OC(=O)c2cc(O)c(O)c(O)c2-c2c(cc(O)c(O)c2O)C(=O)OC1C1OC(=O)c2cc(O)c(O)c(O)c2-c2c(O)c(O)c3oc(=O)c4c(c(O)c(O)c5oc(=O)c2c3c54)-c2c(cc(O)c(O)c2O)C(=O)OCC1O` (stereo not given), the logP was -2.7. In turn, `O=C(OC[C@H]1OC(O)[C@@H]2OC(=O)c3cc(O)c(O)c(O)c3-c3c(cc(O)c(O)c3O)C(=O)O[C@H]2[C@@H]1OC(=O)c1cc(O)c(O)c(O)c1-c1c(O)c(O)c2oc(=O)c3cc(O)c(O)c4oc(=O)c1c2c43)c1cc(O)c(O)c(O)c1` (stereo not given in full) gave a logP of -2.15. The molecule `O=C(O[C@H]1Cc2c(O)cc(O)cc2O[C@H]1c1ccc(O)c(O)c1)c1cc(O)c(O)c(O)c1` came in with a logP of 1.68.

Turning to `O=C(OCC1O[C@@H](O)C(O)(COC(=O)c2cc(O)c(O)c(O)c2)C1OC(=O)c1cc(O)c(O)c(O)c1)c1cc(O)c(O)c(O)c1` (stereo not given in full), the logP worked out at 0.61. As for `Oc1cc(O)c2c(c1)OC(c1ccc(O)c(O)c1)C(O)C2c1c(O)cc(O)c2c1O[C@H](c1ccc(O)c(O)c1)[C@@H](O)C2` (stereo in doubt), the figure is -0.52.

Regarding `O=C(O[C@@H]1O[C@@H]2COC(=O)c3cc(O)c(O)c(O)c3-c3c(cc(O)c(O)c3O)C(=O)O[C@H]([C@H]1O)[C@@H]2O)c1cc(O)c(O)c(O)c1`, the logP was -1.19.

As for `O=C(O[C@@H]1O[C@H](CO)[C@@H](O)[C@H](O)[C@H]1O)c1cc(O)c(O)c(O)c1`, the logP is -1.89. Molecule `O=C1OC[C@H]2OC(O)[C@@H]3OC(=O)c4cc(O)c(O)c(O)c4-c4c(cc(O)c(O)c4O)C(=O)O[C@H]3[C@@H]2OC(=O)c2cc(O)c(O)c(O)c2-c2c1cc(O)c(O)c2O` (stereo not given in full) gave a logP of -2.1. As for `O=C(O[C@@H]1Cc2c(O)cc(O)cc2O[C@@H]1c1cc(O)c(O)c(O)c1)c1cc(O)c(O)c(O)c1`, the figure is 1.08.

`O=C(O[C@@H]1COC(=O)c2cc(O)c(O)c(O)c2-c2c(cc(O)c(O)c2O)C(=O)OC1[C@@H]1OC(=O)c2cc(O)c(O)c(O)c2-c2c(O)c(O)c(O)c3c2C(=O)O[C@H]1[C@H]3O)c1cc(O)c(O)c(O)c1` (stereo not given in full) returned a logP of 1.28.
